Results: patent publication US20260092071A1, “COMPOUNDS AND COMPOSITIONS AS SMARCA2/4 DEGRADERS AND USES THEREOF” (REGENTS OF THE UNIVERSITY OF MICHIGAN, priority 2022, published 2026)
Read-outs that look alike come from different tables or passages of the source.

Key:
SMARCA4 = SMARCA4 (Homo sapiens, UniProt P51532); assay: HiBiT assay for protein degradation, Hela SMARCA4-HiBiT cells (A series); type: cell-based; design: fuse HiBiT to the carboxy terminus of SMARCA2 (Promega CS302365) or SMARCA4 (Promega CS3023225); host or cells: HeLa (CRISPR/Cas9 HiBiT knock-in); details: for DC50: read-out: SMARC A4 Hela HiBit DC50
SMARCA4, sequence (P51532 whole entry, the tested form may be a part): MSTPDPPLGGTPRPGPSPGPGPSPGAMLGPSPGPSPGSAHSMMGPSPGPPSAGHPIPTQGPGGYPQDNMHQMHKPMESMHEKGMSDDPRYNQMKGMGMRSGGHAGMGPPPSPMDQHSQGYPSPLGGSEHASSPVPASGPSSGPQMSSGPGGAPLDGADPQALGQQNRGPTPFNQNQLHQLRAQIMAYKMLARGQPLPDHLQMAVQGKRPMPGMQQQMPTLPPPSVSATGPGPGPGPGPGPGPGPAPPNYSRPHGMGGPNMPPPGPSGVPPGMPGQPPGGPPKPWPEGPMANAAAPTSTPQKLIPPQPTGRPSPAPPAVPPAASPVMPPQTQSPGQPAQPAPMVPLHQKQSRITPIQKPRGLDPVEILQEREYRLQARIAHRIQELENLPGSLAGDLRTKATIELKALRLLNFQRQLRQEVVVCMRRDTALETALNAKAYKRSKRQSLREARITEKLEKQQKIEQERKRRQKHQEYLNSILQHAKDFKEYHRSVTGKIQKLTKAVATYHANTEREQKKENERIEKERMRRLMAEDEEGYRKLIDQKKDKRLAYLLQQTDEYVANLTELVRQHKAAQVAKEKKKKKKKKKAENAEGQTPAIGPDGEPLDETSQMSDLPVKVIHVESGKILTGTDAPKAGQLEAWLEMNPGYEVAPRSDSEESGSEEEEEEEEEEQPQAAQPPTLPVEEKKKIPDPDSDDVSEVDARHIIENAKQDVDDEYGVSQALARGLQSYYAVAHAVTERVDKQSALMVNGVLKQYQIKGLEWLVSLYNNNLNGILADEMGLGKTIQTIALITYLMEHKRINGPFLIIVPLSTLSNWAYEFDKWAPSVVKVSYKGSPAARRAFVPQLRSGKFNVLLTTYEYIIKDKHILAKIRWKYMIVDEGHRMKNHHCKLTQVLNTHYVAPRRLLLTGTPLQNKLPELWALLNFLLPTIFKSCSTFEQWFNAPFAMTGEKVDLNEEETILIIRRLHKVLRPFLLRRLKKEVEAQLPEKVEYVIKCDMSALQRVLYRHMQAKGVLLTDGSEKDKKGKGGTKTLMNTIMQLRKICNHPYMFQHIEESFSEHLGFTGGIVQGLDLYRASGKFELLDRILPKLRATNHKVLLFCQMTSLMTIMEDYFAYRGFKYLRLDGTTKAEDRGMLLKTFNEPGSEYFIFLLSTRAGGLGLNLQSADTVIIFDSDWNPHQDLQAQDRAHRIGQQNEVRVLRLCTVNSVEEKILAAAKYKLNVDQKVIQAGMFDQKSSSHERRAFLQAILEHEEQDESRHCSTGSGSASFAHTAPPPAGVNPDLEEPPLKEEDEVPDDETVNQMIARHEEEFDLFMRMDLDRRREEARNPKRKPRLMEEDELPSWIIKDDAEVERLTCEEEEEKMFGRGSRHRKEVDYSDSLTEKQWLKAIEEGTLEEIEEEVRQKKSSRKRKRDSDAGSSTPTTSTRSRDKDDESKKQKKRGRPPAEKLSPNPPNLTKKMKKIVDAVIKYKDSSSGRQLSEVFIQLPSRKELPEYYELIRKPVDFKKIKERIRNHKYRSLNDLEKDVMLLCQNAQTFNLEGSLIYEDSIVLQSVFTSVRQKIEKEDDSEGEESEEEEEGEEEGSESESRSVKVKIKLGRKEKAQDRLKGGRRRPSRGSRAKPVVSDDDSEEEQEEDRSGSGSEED
Procedure, shortened: (§1)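 HeLa cells engineered by CRISPR/Cas9 to carry a HiBiT tag fused to the C-terminus of SMARCA4 (Promega CS3023225) were grown in DMEM supplemented with FBS and penicillin-streptomycin. After compound exposure, remaining SMARCA4 protein was quantified using the Nano-Glo® HiBiT Lytic Detection Assay (Promega N3050), and curves were fitted in GraphPad Prism.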

SMARCA2 = SMARCA2 (Homo sapiens, UniProt P51531); assay: HiBiT assay for protein degradation, Hela SMARCA2-HiBiT cells (A series); type: cell-based; design: Hela cells were genetically modified via CRISPR/Cas9 to fuse HiBiT to the carboxy terminus of SMARCA2; host or cells: HeLa (CRISPR/Cas9 HiBiT knock-in); details: for DC50: read-out: SMARC A2 Hela HiBit DC50; for Dmax: read-out: SMARC A2 Hela HiBit Dmax (%);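 on SMARC A2 Hela HiBit Dmax (%): 24 h compound treatment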
SMARCA2, sequence (P51531 whole entry): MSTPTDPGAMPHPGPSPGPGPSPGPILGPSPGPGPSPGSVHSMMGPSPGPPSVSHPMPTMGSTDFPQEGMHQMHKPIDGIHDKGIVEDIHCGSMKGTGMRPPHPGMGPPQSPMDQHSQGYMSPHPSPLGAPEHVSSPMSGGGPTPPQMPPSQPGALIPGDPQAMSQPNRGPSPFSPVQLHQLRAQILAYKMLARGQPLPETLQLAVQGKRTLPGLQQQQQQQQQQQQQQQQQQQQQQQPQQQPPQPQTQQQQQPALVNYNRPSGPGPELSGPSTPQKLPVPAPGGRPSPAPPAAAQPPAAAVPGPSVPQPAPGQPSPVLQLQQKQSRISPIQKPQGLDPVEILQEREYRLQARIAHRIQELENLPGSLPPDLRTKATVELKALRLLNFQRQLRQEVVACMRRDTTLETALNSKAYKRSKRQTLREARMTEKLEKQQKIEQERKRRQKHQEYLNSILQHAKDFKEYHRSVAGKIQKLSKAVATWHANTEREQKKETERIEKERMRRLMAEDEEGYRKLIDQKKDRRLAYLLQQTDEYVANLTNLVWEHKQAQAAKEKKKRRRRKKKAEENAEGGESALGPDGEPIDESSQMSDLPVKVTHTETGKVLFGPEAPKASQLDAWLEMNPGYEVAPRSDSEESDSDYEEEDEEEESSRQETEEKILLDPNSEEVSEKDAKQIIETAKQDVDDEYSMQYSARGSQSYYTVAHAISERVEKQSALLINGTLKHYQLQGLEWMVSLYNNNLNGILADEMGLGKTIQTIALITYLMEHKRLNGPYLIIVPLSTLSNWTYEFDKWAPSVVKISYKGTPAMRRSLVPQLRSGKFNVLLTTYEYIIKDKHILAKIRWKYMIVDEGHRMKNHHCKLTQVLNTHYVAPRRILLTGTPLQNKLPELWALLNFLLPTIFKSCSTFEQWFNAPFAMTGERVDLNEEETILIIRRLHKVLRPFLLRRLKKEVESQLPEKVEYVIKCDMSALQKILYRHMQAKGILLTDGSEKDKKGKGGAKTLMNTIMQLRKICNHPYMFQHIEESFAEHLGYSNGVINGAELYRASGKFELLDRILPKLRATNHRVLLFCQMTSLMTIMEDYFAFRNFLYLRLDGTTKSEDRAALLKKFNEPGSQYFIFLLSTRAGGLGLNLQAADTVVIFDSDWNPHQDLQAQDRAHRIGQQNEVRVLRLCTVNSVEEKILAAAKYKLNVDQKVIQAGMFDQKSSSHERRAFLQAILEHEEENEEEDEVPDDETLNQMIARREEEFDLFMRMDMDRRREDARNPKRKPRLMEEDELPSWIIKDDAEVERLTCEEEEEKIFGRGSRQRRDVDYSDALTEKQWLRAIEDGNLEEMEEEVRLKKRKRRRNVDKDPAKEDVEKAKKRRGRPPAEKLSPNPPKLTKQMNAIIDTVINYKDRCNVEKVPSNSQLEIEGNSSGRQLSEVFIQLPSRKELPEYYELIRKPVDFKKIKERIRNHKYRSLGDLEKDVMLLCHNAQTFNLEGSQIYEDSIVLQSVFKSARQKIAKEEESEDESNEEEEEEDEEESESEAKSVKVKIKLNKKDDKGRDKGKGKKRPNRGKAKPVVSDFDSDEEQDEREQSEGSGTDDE
Procedure, shortened: as §1, with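 “SMARCA2” for “SMARCA4”, “CS302365)” for “CS3023225)”, “treatment,” for “compound exposure,”, “with” for “using”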

[1] = Hela SMARCA4-HiBiT cells, 24 hours treatment
[2] = Hela SMARCA4-HiBiT cells, 24 hours treatment, read-out: SMARC A4 Hela HiBit Dmax(%)
[3] = Hela SMARCA2-HiBiT cells, 24 hours treatment
[4] = Hela SMARCA4-HiBiT cells, 24 hours treatment, read-out: SMARC A4 Hela HiBit Dmax

Compound: Cc1ncsc1-c1ccc([C@H](C)NC(=O)[C@@H]2C[C@@H](O)CN2C(=O)[C@@H](NC(=O)[C@H]2CC[C@H](CN3CC(N4CCC(c5ccc6c(c5)C5(CCCCC5)c5nc(=O)c7c(Cl)cccc7n5-6)CC4)C3)CC2)C(C)(C)C)cc1 [Compound A12, (2S,4R)-1-((S)-2-((1r,4S)-4-((3-(4-(4′-chloro-5′-oxo-5′H-spiro[cyclohexane-1,7′-indolo[1,2-a]quinazolin]-9′-yl)piperidin-1-yl)azetidin-1-yl)methyl)cyclohexane-1-carboxamido)-3,3-dimethylbutanoyl)-4-hydroxy-N—((S)-1-(4-(4-methylthiazol-5-yl)phenyl)ethyl)pyrrolidine-2-carboxamide]
- DC50 (SMARCA4; [1]): 501 to 1000 nM
- Dmax (SMARCA4; [2]): 50 to 69%
- DC50 (SMARCA2; [3]): 100 to 500 nM
- Dmax (SMARCA2; [3]): 70 to 90%

Compound: Cc1ncsc1-c1ccc([C@H](C)NC(=O)[C@@H]2C[C@@H](O)CN2C(=O)[C@@H](n2cc(CCCCCN3CCC(c4ccc5c(c4)-n4c(nc(=O)c6c(Br)cccc64)C54CCCCC4)CC3)nn2)C(C)(C)C)cc1 [Compound A46, (2S,4R)-1-((S)-2-(4-(5-(4-(4′-bromo-5′-oxo-5′H-spiro[cyclohexane-1,7′-indolo[1,2-a]quinazolin]-10′-yl)piperidin-1-yl)pentyl)-1H-1,2,3-triazol-1-yl)-3,3-dimethylbutanoyl)-4-hydroxy-N—((S)-1-(4-(4-methylthiazol-5-yl)phenyl)ethyl)pyrrolidine-2-carboxamide]
- SMARC A4 Hela HiBit Dmax(%) (SMARCA4; [1]): B (B (70-90% degradation))
- DC50 (SMARCA4): < 100 nM
- SMARC A2 Hela HiBit Dmax (%) (SMARCA2; [3]): A (A (>90% degradation))
- DC50 (SMARCA2): < 100 nM

Compound: Cc1ncsc1-c1ccc([C@H](CNC(=O)[C@H]2CC[C@H](CN3CCC(c4ccc5c(c4)C4(CCCCC4)c4nc(=O)c6c(Br)cccc6n4-5)CC3)CC2)NC(=O)[C@@H]2C[C@@H](O)CN2C(=O)[C@@H](n2cc(C3CC3)nn2)C(C)(C)C)cc1 [Compound A117, (2S,4R)—N—((R)-2-((1r,4R)-4-((4-(4′-bromo-5′-oxo-5′H-spiro[cyclohexane-1,7′-indolo[1,2-a]quinazolin]-9′-yl)piperidin-1-yl)methyl)cyclohexane-1-carboxamido)-1-(4-(4-methylthiazol-5-yl)phenyl)ethyl)-1-((S)-2-(4-cyclopropyl-1H-1,2,3-triazol-1-yl)-3,3-dimethylbutanoyl)-4-hydroxypyrrolidine-2-carboxamide]
- DC50 (SMARCA4; [1]): > 1000 nM
- Dmax (SMARCA4; [4]): < 50%
- DC50 (SMARCA2; [3]): > 1000 nM
- Dmax (SMARCA2; [3]): < 50%

Compound: Cc1ncsc1-c1ccc([C@H](CN2CCC(C(F)F)CC2)NC(=O)[C@@H]2C[C@@H](O)CN2C(=O)[C@@H](n2cc([C@H]3CC[C@H](CN4CCC(c5ccc6c(c5)-n5c(nc(=O)c7c(Cl)cccc75)C65CCCCC5)CC4)CC3)nn2)C(C)(C)C)cc1 [Compound A84, (2S,4R)-1-((S)-2-(4-((1r,4S)-4-((4-(4′-chloro-5′-oxo-5′H-spiro[cyclohexane-1,7′-indolo[1,2-a]quinazolin]-10′-yl)piperidin-1-yl)methyl)cyclohexyl)-1H-1,2,3-triazol-1-yl)-3,3-dimethylbutanoyl)-N—((R)-2-(4-(difluoromethyl)piperidin-1-yl)-1-(4-(4-methylthiazol-5-yl)phenyl)ethyl)-4-hydroxypyrrolidine-2-carboxamide]
- DC50 (SMARCA4; [1]): > 1000 nM
- Dmax (SMARCA4; [4]): < 50%
- DC50 (SMARCA2; [3]): 10 to 100 nM
- Dmax (SMARCA2; [3]): > 90%

Compound: Cc1ncsc1-c1ccc([C@H](C)NC(=O)[C@@H]2C[C@@H](O)CN2C(=O)[C@@H](n2cc([C@H]3CC[C@H](CN4CCC(c5ccc6c(c5)-n5c(nc(=O)c7c(Br)cccc75)C65CCCCC5)CC4)CC3)nn2)C(C)(C)C)cc1 [Compound A49, (2S,4R)-1-((S)-2-(4-((1r,4S)-4-((4-(4′-bromo-5′-oxo-5′H-spiro[cyclohexane-1,7′-indolo[1,2-a]quinazolin]-10′-yl)piperidin-1-yl)methyl)cyclohexyl)-1H-1,2,3-triazol-1-yl)-3,3-dimethylbutanoyl)-4-hydroxy-N—((S)-1-(4-(4-methylthiazol-5-yl)phenyl)ethyl)pyrrolidine-2-carboxamide]
- SMARC A4 Hela HiBit Dmax(%) (SMARCA4; [1]): B (B (70-90% degradation))
- DC50 (SMARCA4; [1]): 100 to 500 nM
- SMARC A2 Hela HiBit Dmax (%) (SMARCA2; [3]): A (A (>90% degradation))
- DC50 (SMARCA2; [3]): < 100 nM

Compound: Cc1ncsc1-c1ccc([C@H](CN2CCC3(COC3)C2)NC(=O)[C@@H]2C[C@@H](O)CN2C(=O)[C@@H](n2cc([C@H]3CC[C@H](CN4CCC(c5ccc6c(c5)-n5c(nc(=O)c7c(Cl)cccc75)C65CCCCC5)CC4)CC3)nn2)C(C)(C)C)cc1 [Compound A97, (2S,4R)-1-((S)-2-(4-((1r,4S)-4-((4-(4′-chloro-5′-oxo-5′H-spiro[cyclohexane-1,7′-indolo[1,2-a]quinazolin]-10′-yl)piperidin-1-yl)methyl)cyclohexyl)-1H-1,2,3-triazol-1-yl)-3,3-dimethylbutanoyl)-4-hydroxy-N—((R)-1-(4-(4-methylthiazol-5-yl)phenyl)-2-(2-oxa-6-azaspiro[3.4]octan-6-yl)ethyl)pyrrolidine-2-carboxamide]
- DC50 (SMARCA4; [1]): > 1000 nM
- Dmax (SMARCA4; [4]): 50 to 69%
- DC50 (SMARCA2; [3]): < 10 nM
- Dmax (SMARCA2; [3]): > 90%

Compound: Cc1ncsc1-c1ccc([C@H](CN2CC(C)(F)C2)NC(=O)[C@@H]2C[C@@H](O)CN2C(=O)[C@@H](n2cc([C@H]3CC[C@H](CN4CCC(c5ccc6c(c5)-n5c(nc(=O)c7c(Cl)cccc75)C6(C)C)CC4)CC3)nn2)C(C)(C)C)cc1 [Compound A93, (2S,4R)-1-((S)-2-(4-((1r,4S)-4-((4-(4-chloro-7,7-dimethyl-5-oxo-5,7-dihydroindolo[1,2-a]quinazolin-10-yl)piperidin-1-yl)methyl)cyclohexyl)-1H-1,2,3-triazol-1-yl)-3,3-dimethylbutanoyl)-N—((R)-2-(3-fluoro-3-methylazetidin-1-yl)-1-(4-(4-methylthiazol-5-yl)phenyl)ethyl)-4-hydroxypyrrolidine-2-carboxamide]
- DC50 (SMARCA4; [1]): > 1000 nM
- Dmax (SMARCA4; [4]): < 50%
- DC50 (SMARCA2; [3]): < 10 nM
- Dmax (SMARCA2; [3]): > 90%

Compound: Cc1ncsc1-c1ccc([C@H](CN2CCOCC2)NC(=O)[C@@H]2C[C@@H](O)CN2C(=O)[C@H](C2CCCCC2)n2cc([C@H]3CC[C@H](CN4CCC(c5ccc6c(c5)-n5c(nc(=O)c7c(Cl)cccc75)C6(C)C)CC4)CC3)nn2)cc1 [Compound A125, (2S,4R)-1-((S)-2-(4-((1r,4S)-4-((4-(4-chloro-7,7-dimethyl-5-oxo-5,7-dihydroindolo[1,2-a]quinazolin-10-yl)piperidin-1-yl)methyl)cyclohexyl)-1H-1,2,3-triazol-1-yl)-2-cyclohexylacetyl)-4-hydroxy-N—((R)-1-(4-(4-methylthiazol-5-yl)phenyl)-2-morpholinoethyl)pyrrolidine-2-carboxamide]
- SMARC A4 Hela HiBit DC50(nM) (SMARCA4; [1]): No fit
- Dmax (SMARCA4; [4]): 50 to 69%
- DC50 (SMARCA2; [3]): < 10 nM
- Dmax (SMARCA2; [3]): > 90%

Compound: Cc1ncsc1-c1ccc([C@H](CN2CCS(=O)(=O)CC2)NC(=O)[C@@H]2C[C@@H](O)CN2C(=O)[C@@H](n2cc([C@H]3CC[C@H](CN4CCC(c5ccc6c(c5)-n5c(nc(=O)c7c(Cl)cccc75)C65CCCCC5)CC4)CC3)nn2)C(C)(C)C)cc1 [Compound A72, (2S,4R)-1-((S)-2-(4-((1r,4S)-4-((4-(4′-chloro-5′-oxo-5′H-spiro[cyclohexane-1,7′-indolo[1,2-a]quinazolin]-10′-yl)piperidin-1-yl)methyl)cyclohexyl)-1H-1,2,3-triazol-1-yl)-3,3-dimethylbutanoyl)-N—((R)-2-(1,1-dioxidothiomorpholino)-1-(4-(4-methylthiazol-5-yl)phenyl)ethyl)-4-hydroxypyrrolidine-2-carboxamide]
- DC50 (SMARCA4; [1]): > 1000 nM
- Dmax (SMARCA4; [2]): < 50%
- DC50 (SMARCA2; [3]): < 100 nM
- Dmax (SMARCA2; [3]): > 90%

Compound: Cc1ncsc1-c1ccc([C@H](CCCCN2CCC(c3ccc4c(c3)C3(CCCC3)c3nc(=O)c5c(Cl)cccc5n3-4)CC2)NC(=O)[C@@H]2C[C@@H](O)CN2C(=O)[C@@H](NC(=O)C2(F)CC2)C(C)(C)C)cc1 [Compound A1, (2S,4R)-N-((S)-5-(4-(4′-chloro-5′-oxo-5′H-spiro[cyclopentane-1,7′-indolo[1,2-a]quinazolin]-9′-yl)piperidin-1-yl)-1-(4-(4-methylthiazol-5-yl)phenyl)pentyl)-1-((S)-2-(1-fluorocyclopropane-1-carboxamido)-3,3-dimethylbutanoyl)-4-hydroxypyrrolidine-2-carboxamide]
- DC50 (SMARCA4; [1]): 100 to 500 nM
- Dmax (SMARCA4; [2]): 70 to 90%
- DC50 (SMARCA2; [3]): < 100 nM
- Dmax (SMARCA2; [3]): > 90%
